Here are results for seven molecules from publication PMC6045421 (ACS Omega, 2018).

The IC50 is the point on the concentration scale where inhibition reaches its midpoint.

Entries after “also recorded” stand apart in the source; their conditions may differ.

Data set [1] addresses recombinant human IRAP (Homo sapiens, UniProt Q9UIQ6). Format: biochemical. Conditions: HEK293.
Data set [2] can be described thus: Stability in human liver microsomes. The format is in vitro ADME. To be noted: HLM and MLM. (In general: Liver microsomes are a subcellular fraction often used to study metabolism.)
In data set [3] the test system is aminopeptidase N (APN). To be noted: cited from earlier work.
Data set [4] has as its system leukotriene A4 hydrolase (LTA4H). To be noted: cited from earlier work.
For data set [5], the system named is primary hippocampal neuron cultures. Conditions: primary hippocampal neuron cultures from mice; cited from earlier work.
Data set [6] has as its system IRAP from Chinese hamster ovary (CHO) cells. To be noted: read-out: IC50 in CHO cells, hamster enzyme; cited from earlier work.

Sequence of recombinant human IRAP (Q9UIQ6 whole entry): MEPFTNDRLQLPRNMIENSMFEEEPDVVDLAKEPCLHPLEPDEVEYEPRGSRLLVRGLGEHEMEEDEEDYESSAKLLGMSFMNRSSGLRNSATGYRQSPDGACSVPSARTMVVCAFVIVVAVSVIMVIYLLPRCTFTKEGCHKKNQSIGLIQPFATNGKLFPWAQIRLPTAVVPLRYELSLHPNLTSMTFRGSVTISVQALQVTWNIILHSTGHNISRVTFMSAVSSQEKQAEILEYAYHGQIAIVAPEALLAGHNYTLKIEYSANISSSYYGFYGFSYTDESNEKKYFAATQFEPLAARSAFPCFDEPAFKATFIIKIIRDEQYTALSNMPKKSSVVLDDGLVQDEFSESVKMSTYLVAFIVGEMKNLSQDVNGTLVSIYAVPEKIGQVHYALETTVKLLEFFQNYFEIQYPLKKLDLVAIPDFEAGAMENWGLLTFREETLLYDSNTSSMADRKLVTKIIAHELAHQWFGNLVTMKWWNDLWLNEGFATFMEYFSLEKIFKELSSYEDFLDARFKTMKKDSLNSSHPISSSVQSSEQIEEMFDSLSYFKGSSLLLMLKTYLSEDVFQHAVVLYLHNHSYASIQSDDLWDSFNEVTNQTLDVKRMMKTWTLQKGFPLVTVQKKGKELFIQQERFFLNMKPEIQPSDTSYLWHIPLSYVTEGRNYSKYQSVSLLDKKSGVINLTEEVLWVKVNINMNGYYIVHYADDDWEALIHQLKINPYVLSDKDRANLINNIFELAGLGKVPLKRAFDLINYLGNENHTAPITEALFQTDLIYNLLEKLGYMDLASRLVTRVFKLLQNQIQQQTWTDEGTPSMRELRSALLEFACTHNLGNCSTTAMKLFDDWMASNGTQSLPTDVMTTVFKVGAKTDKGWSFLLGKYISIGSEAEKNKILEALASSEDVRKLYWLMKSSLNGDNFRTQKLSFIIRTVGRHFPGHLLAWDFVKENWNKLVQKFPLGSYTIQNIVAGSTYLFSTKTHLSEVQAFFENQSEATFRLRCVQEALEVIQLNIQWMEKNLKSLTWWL

As for `O=C(Nc1cccc(-c2nnn[nH]2)c1)c1cc(Br)c(Cl)s1` [Compound 12], the “IRAP inhibition (in words)” value in data set [1] was “complete lack of inhibitory activity”.

With `O=S(=O)(Nc1cccc(-c2nnn[nH]2)c1)c1cc(C(F)(F)F)ccc1C(F)(F)F` [Compound 29, N-(3-(1H-Tetrazol-5-yl)phenyl)-2,5-bis(trifluoromethyl)benzenesulfonamide], in data set [2], the “stability in the microsome assays (in words)” value was “high metabolic stability”. In data set [1], the “IRAP inhibition (in words)” value is recorded as “submicromolar potency; also recorded: submicromolar affinity”.

Regarding `O=S(=O)(Nc1cccc(-c2nnn[nH]2)c1)c1ccc(-c2ccccc2)cc1` [Compound 20], the “IRAP inhibition (in words)” value in data set [1] is “totally inactive”.

With `O=S(=O)(Nc1cccc(-c2nnn[nH]2)c1)c1cc(Cl)c(Cl)s1` [Compound 13], the “IRAP inhibition (in words)” value in data set [1] was “submicromolar activity”.

As to `Cc1ccc(S(=O)(=O)Nc2cccc(-c3nnn[nH]3)c2)cc1C` [Compound 25], the “inhibition of APN relative to IRAP (in words)” value in data set [3] was “much lower efficacy”. In data set [4], the “inhibition of LTA4H relative to IRAP (in words)” value was “much lower efficacy”. In data set [5], the “density of dendritic spines (in words)” value was “enhance the density of dendritic spines”. Besides, the “IRAP inhibition (in words)” value in data set [1] is on record as “submicromolar potency”. For the same molecule, the IC50 in data set [6] is 3100 nM.

`O=S(=O)(Nc1cccc(-c2nnn[nH]2)c1)c1cc(Cl)c(Cl)cc1Cl` [Compound 26]: the “inhibition of APN relative to IRAP (in words)” value in data set [3] was “much lower efficacy”. Further, in data set [4], the “inhibition of LTA4H relative to IRAP (in words)” value is listed as “much lower efficacy”. Further, the “density of dendritic spines (in words)” value in data set [5] was “enhance the density of dendritic spines”. In addition, in data set [1], the “IRAP inhibition (in words)” value is reported as “submicromolar potency”. Further, the IC50 in data set [6] was 2900 nM.

On to `O=S(=O)(Nc1cccc(-c2nnn[nH]2)c1)c1ccc(Cl)c2nonc12` [Compound 21], for which the “inhibition of APN relative to IRAP (in words)” value in data set [3] is reported as “much lower efficacy”. In data set [4], the “inhibition of LTA4H relative to IRAP (in words)” value is “much lower efficacy”. The “IRAP inhibition (in words)” value in data set [1] is given as “submicromolar”.
